Measurements reported in US20200190101A1, “Composition Containing Novel Glutamic Acid Derivative And Block Copolymer, And Use Thereof” (Nippon Kayaku Kabushiki Kaisha, priority 2015, published 2020).

Assays:
[1] = Phosphate buffered physiological saline (PBS) solution stability test; assay type: physicochemical; conditions: PBS, 37° C., after 6.5 hours, HPLC
Protocol: 0.148 mL of the doxorubicin-bonded glutamic acid derivative PBS solution was dissolved in 0.148 mL of a PBS solution, and the solution was allowed to react at 37° C.
PBS (0.100 mL) was added to the EHC-bonded glutamic acid derivative solution (0.100 mL), and the mixture was allowed to react at 37° C. The reaction liquid was analyzed by HPLC, and thereby the residual ratio of the EHC-bonded glutamic acid derivative was determined.
PBS (0.117 mL) was added to the camptothecin-bonded glutamic acid derivative solution (0.117 mL), and the mixture was allowed to react at 37° C. The reaction liquid was analyzed by HPLC, and thereby the residual ratio of the glutamic acid derivative was determined.
The reaction liquid was analyzed by HPLC, and thereby the residual ratio of the EHC-bonded glutamic acid derivative was determined.

[2] = test system: OS-RC-2 cells having high GGT activity; assay type: cell-based, human; conditions: GGsTop 10 μM, compound 0.039 to 10 μM
Protocol: OS-RC-2 cells were inoculated by a method similar to that of Test Example 3. […] After the cells were incubated for 6 hours, the interior of the wells was washed, and after the cells were further incubated for 3 days, the cell proliferation suppressive activity was evaluated by a method similar to that of Test Example 3.
By a similar operation, the cell proliferation suppressive activity was evaluated using doxorubicin that was not glutamic acid-derivatized, from the light absorbance of the compound.
The GGT activity dependency of the cell proliferation inhibitory activity of the EHC-bonded glutamic acid derivative according to Synthesis Example 6 was evaluated using OS-RC-2 cells having high GGT activity.
OS-RC-2 cells were inoculated by a method similar to that of Test Example 10. After the cells were incubated for one day, GGsTop (Wako Pure Chemical Industries, Ltd.), which is a GGT inhibitor, was added to the cells at a final concentration of 10 μM, and the cells were incubated for one hour. Subsequently, the EHC-bonded glutamic acid derivative according to Synthesis Example 6 was added to the cells at a final concentration of 0.0001 to 1 μM. After the cells were incubated for 6 hours, the interior of the wells was washed, and after the cells were incubated for 3 days, the cell proliferation suppressive activity was evaluated by a method similar to that of Test Example 10.
By a similar operation, the cell proliferation suppressive activity was evaluated using EHC, which is the active ingredient of Synthesis Example 6, from the light absorbance of the compound.

[3] = test system: SK-OV-3 cells having low GGT activity; assay: cells; assay type: cell-based; conditions: Homo sapiens; SK-OV-3 cells, 10 μM, 6 hours exposure then 3 days incubation; read-out: Cell proliferation inhibitory activity
Protocol: After the cells were incubated for 6 hours, the interior of the wells was washed, and after the cells were further incubated for 3 days, the cells were immobilized with methanol and stained using Methylene Blue dye. After staining, the dye was extracted with a 0.3% aqueous solution of hydrochloric acid was extracted, and the light absorbance at 660 nm was measured. For the light absorbance thus obtained, the cell proliferation suppressive activity was evaluated based on the reduction ratio for the light absorbance measured from cells to which the compound was not added.
By a similar operation, the cell proliferation suppressive activity was evaluated from the light absorbance, using doxorubicin that was not converted to a glutamic acid derivative. The results are shown in FIG. 1 (OS-RC-2 cells having high GGT activity) and FIG. 2 (SK-OV-3 cells having low GGT activity).
The cell proliferation inhibitory activity of the EHC-bonded glutamic acid derivative according to Synthesis Example 6 was evaluated using OS-RC-2 cells (RIKEN BioResource Center), which are known to have high GGT activity, and SK-OV-3 cells (American Type Culture Collection), which are known to have low GGT activity.
On a 96-well plate, OS-RC-2 cells having high GGT activity and SK-OV-3 cells having low GGT activity were each inoculated in an amount of 4,000 cells/well and were incubated for one day at 37° C. and 5% CO2, and then the EHC prodrug according to Synthesis Example 6 was added to the cells at a final concentration of 0.0001 to 1 μM. After the cells were incubated for 6 hours, the interior of the wells was washed, and the cells were further incubated for 3 days. After the incubation, the cells were immobilized with methanol and were stained using Methylene Blue dye. After staining, the dye was extracted with a 0.3% aqueous solution of hydrochloric acid, and the light absorbance at 660 nm was measured. The cell proliferation suppressive activity was evaluated based on the reduction ratio for the light absorbance thus obtained, with respect to the light absorbance measured from cells to which the compound was not added.
By a similar operation, EHC, which was an active ingredient of Synthesis Example 6, was used without modification, and the cell proliferation suppressive activity was evaluated from the light absorbance.

[4] = test system: γ-glutamyl transpeptidase (GGT); assay: γ-Glutamyl transpeptidase (GGT) enzyme recognition test; assay type: biochemical; conditions: 2 mM PBS solution + 2 U/mL GGT solution, 37° C.; for Residual ratio of unchanged drug: HPLC
Protocol: To 0.150 mL of this doxorubicin-bonded glutamic acid derivative (prodrug) PBS solution, 0.150 mL of a 2 U/mL GGT solution obtained by dissolving GGT (0.22 mg, 8 U/mg) (Sigma-Aldrich Company) in PBS (0.880 mL) was added, and the mixture was allowed to react at 37° C.
The reaction liquid was analyzed by HPLC, and thus the residual ratio of the doxorubicin-bonded glutamic acid derivative (prodrug) and the production ratio of doxorubicin were determined.
To 0.100 mL of the doxorubicin-bonded glutamic acid derivative PBS solution, 0.100 mL of a 2 U/mL GGT solution obtained by dissolving GGT (0.38 mg, 8 U/mg) (Sigma-Aldrich Company) in PBS (1.520 mL) was added, and the mixture was allowed to react at 37° C. […]

[5] = Test on pharmacokinetics of Example 1 (blood plasma); assay type: in vivo, mice; conditions: mouse, iv, 10 mg/kg in terms of DXR i.v., read-out: AUC0-6 hr. Unchanged drug (DXR prodrug)
Protocol: At time points of 5 minutes, 1 hour, 3 hours, and 6 hours after administration, blood plasma was collected under ether anesthesia.

[6] = Test on pharmacokinetics of Synthesis Example 1 (tissue concentrations, OS-RC-2 tumor-bearing mice); assay type: in vivo, SCID mice; conditions: for Unchanged drug concentration: value after 5 minutes, 5 mg/kg in terms of doxorubicin i.v.
Protocol: Human renal cell cancer OS-RC-2 tumors that had been subcutaneously subcultured in SCID mice were produced into blocks that measured about 2 mm on each side, and the blocks were subcutaneously transplanted into SCID mice using a trocar.
At time points of 5 minutes, 3 hours, and 24 hours after the administration, various tissues such as blood plasma, heart, liver, bone marrow, and tumor were collected under ether anesthesia.

COc1cccc2c1C(=O)c1c(O)c3c(c(O)c1C2=O)C[C@@](O)(C(=O)CO)CC3OC1CC(NC(=O)OCc2ccc(NC(=O)CCC(N)C(=O)O)cc2)C(O)C(C)O1 (stereo partly drawn) [Synthesis Example 1, (((4-((S)-4-amino-4-carboxybutanamide)benzyl)oxy)carbonyl)doxorubicin]
Stability in PBS solution (release of doxorubicin) [1]: did not release doxorubicin in a PBS solution and was chemically stable | Effect of GGT inhibitor on cell proliferation suppressive activity [2]: completely inhibited the activity | inhibition at 10 µM [3]: 13% | Doxorubicin production rate ([4]; reaction time 0 hr): 0% | Residual ratio of unchanged drug ([4]; reaction time 0 hr): 100% | Doxorubicin production rate ([4]; reaction time 1 hr): 49% | Residual ratio of unchanged drug ([4]; reaction time 1 hr): 39% | Doxorubicin production rate ([4]; reaction time 6.5 hr): 98% | Residual ratio of unchanged drug ([4]; reaction time 6.5 hr): 1% | AUC(0-t) [5]: 6240 ng·h/mL | Unchanged drug concentration ([6]; Blood plasma): 9.36 μg/mL or g | Unchanged drug concentration ([6]; Bone marrow): 0.336 μg/mL or g | Unchanged drug concentration ([6]; Heart): 1.63 μg/mL or g | Unchanged drug concentration ([6]; Liver): 60.6 μg/mL or g | Unchanged drug concentration ([6]; Tumor): 0.192 μg/mL or g | Concentration of doxorubicin produced, compared to doxorubicin hydrochloride ([6]; blood plasma, liver, bone marrow, and heart (GGT expressed at a low level)): low | Concentration of doxorubicin produced, compared to doxorubicin hydrochloride ([6]; tumor (GGT expressed at a high level)): high
